Test results from patent US20040186072A1, “Use of esters of long-chain fatty acids for treatment of autoimmune diseases” (priority 2001, published 2004).

Legend:
[1] = test system: EAE induced with mouse spinal cord homogenate (MSCH); assay: EAE induced by mouse spinal cord homogenate (MSCH)/CFA in SJL/J mice; type: in vivo; conditions: for clinical severity: 100 μl s.c. daily from day 4, all control mice had died by day 15, FIG. 6
[2] = test system: EAE induced by PLP 139-151 peptide in SJL/J mice; assay: EAE induced by PLP 139-151/CFA in SJL/J mice, clinical score 0-5; type: in vivo; conditions: for mean clinical score on day 22: Example 5: 100 μl s.c. daily from day 11, PBS control 2.5±0.84
[3] = stated as known; cited from earlier work
[4] = Example 2: 100 μl i.p. daily day 0-50, followed until day 70

CCCCCCCC/C=C\CCCCCCCC(=O)OCC [EOA, ethyl oleate]
clinical severity [1]: markedly reduced clinical severity
mice that developed EAE (incidence) ([2]; Example 1: EOA 100 μl s.c. daily day 0-11, then days 13, 15, 17, 20, 23, 26, untreated control 5 out of 5): 2 out of the 5
mean maximal severity (clinical score 0-5) ([2]; Example 1: EOA 100 μl s.c. from day 0, control 1.67±0.29): 0.5±0.32
effect on clinical severity and incidence of EAE ([2]; Example 1: s.c. from day 0, FIG. 1): significantly reduced clinical severity and incidence of EAE
mean maximal clinical score (0-5) [2, 4]: 0.63±0.28
mice that developed EAE (incidence) [2, 4]: 5 out of 8
time mice remained stable after cessation of treatment ([2]; Example 2: i.p. daily day 0-50, treatment stopped day 50): 20 days
maximal mean score at which disease progression was arrested ([2]; Example 4: 100 μl i.p. daily from day 12 (clinical onset) to day 35, control 3.5±0.69): 0.83±0.53
mean maximal clinical score, partially recovered subgroups (EOA-P, IFA-P) ([2]; Example 4: daily i.p. treatment reinstated from day 40 for 40 days, FIG. 4C, untreated control 3.1±0.7): 1.3±0.19
therapeutic effect on ongoing EAE ([2]; Example 4: i.p. daily day 12-35, FIG. 4A): immediately arrested the worsening of the clinical symptoms of EAE
state on day 40 after withholding treatment ([2]; Example 4: i.p. daily day 12-35, then no treatment): remained stable with no evidence of disease exacerbation or development of relapses
time to complete reversal of clinical symptoms after treatment was initiated ([2]; Example 4: i.p. daily from day 12): 8 to 10 days
mean maximal clinical score on days 20-21 ([2]; Example 4: i.p. daily from day 12, control 3.5±0.69): 0.17±0.11
effect of second course of treatment on clinical signs ([2]; Example 4: partially recovered subgroups, daily i.p. from day 40): no further ameliorating effect
mean clinical score on day 22 [2]: 0.83±0.40
toxicity when injected into humans [3]: non-toxic when injected into humans

mannide mono-oleate [MMO]
disease development ([1]; 100 μl s.c. daily from day 4, FIG. 6): almost complete abrogation of disease development
clinical severity [1]: markedly reduced clinical severity
effect on disease development ([2]; Example 3: 100 μl i.p. daily from day 0, FIG. 3): completely abrogated disease development
mean maximal clinical score on day 40 ([2]; Example 3: i.p. daily day 0-25, 15 days after injections stopped, control 2.6±0.99): 0.17±0.11
mean maximal clinical score on day 73 ([2]; Example 3: i.p. daily day 0-25, 48 days after injections stopped, control 3.2±0.75): 0.67±0.44
mice in which very mild clinical signs appeared after treatment was discontinued ([2]; Example 3: i.p. daily day 0-25, from day 25 on): 3 out of the 6
clinical signs on day 20 ([2]; Example 3: i.p. daily from day 0, all 6 treated mice, control score 3.4±0.69): free of any clinical sign of EAE
mean clinical score on day 22 [2]: 0.08±0.08
toxicity when injected into humans [3]: non-toxic when injected into humans
